# According to patent publication US8022091B2, “Triazole derivative” (Taisho Pharmaceutical Co., Ltd., priority 2006, dated 2011):
# Target: T1, human Edg-1 (S1P1) (Homo sapiens, UniProt P21453)
# T1 construct: expressed in transfected cells; host or cells: HEK-293
# Experiment: S1P1 binding assay: inhibition of [33P]-S1P binding to membrane fraction of HEK-293 cells transferred with the human Edg-1 (S1P1) gene
# Conditions: test compound 10 μM; inhibition of [33P]-S1P binding, membrane fraction
# How it was run: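 Membranes from S1P1-transfected HEK-293 cells incubated 1 h at 30° C in pH 7.4 Tris buffer with fatty acid-free BSA, 0.1 nM [33P]-S1P and test compound (0.1% DMSO). Filter-bound radioactivity was counted; inhibition corrected for binding to untransfected-cell membranes, and IC50 derived from concentration series.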
# T1 sequence (P21453 whole entry): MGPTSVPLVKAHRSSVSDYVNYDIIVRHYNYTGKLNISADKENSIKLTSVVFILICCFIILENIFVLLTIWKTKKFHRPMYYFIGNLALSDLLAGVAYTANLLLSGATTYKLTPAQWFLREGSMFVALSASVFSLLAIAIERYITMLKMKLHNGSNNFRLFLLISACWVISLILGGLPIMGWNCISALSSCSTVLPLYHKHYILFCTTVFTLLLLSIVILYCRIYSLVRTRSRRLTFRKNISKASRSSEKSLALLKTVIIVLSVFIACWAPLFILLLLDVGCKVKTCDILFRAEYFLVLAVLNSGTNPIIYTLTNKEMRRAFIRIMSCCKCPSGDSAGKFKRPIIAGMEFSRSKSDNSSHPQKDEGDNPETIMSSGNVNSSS
row,SMILES,inhibition at 10 µM [%]
1,CCn1c(Oc2ccc3cc[nH]c3c2)nnc1[C@@H](C)NS(=O)(=O)c1ccc(C(C)C)cc1 [Compound 404],60.2
2,CCn1c(Oc2ccc3cc[nH]c3c2)nnc1[C@@H](C)NS(=O)(=O)c1cc(F)cc(Cl)c1C [Compound 405],61.4
3,CCc1cc(Br)ccc1S(=O)(=O)N[C@H](C)c1nnc(Oc2ccc3cc[nH]c3c2)n1CC [Compound 406],56.3
4,CCn1c(Oc2ccc3cc[nH]c3c2)nnc1[C@@H](C)NS(=O)(=O)c1ccc(Br)cc1C [Compound 407],68.2
5,CCn1c(Oc2ccc3cc[nH]c3c2)nnc1[C@@H](C)NS(=O)(=O)c1ccc(F)c(F)c1F [Compound 409],74.7
6,CCn1c(Oc2ccc3cc[nH]c3c2)nnc1[C@@H](C)NS(=O)(=O)c1cc(F)c(F)cc1Cl [Compound 412],82.5
7,CCn1c(Oc2ccc3cc[nH]c3c2)nnc1[C@@H](C)NS(=O)(=O)c1ccc(F)c(F)c1 [Compound 413],95.3
8,CCn1c(Oc2ccc3cc[nH]c3c2)nnc1[C@@H](C)NS(=O)(=O)c1ccc(Br)cc1F [Compound 414],92.5
9,CCn1c(Oc2ccc3cc[nH]c3c2)nnc1[C@@H](C)NS(=O)(=O)c1cc(F)c(Cl)cc1F [Compound 415],91.5
10,CCn1c(Oc2ccc3cc[nH]c3c2)nnc1[C@@H](C)NS(=O)(=O)c1cc(Br)c(F)cc1F [Compound 416],83.2
11,CCn1c(Oc2ccc3cc[nH]c3c2)nnc1[C@@H](C)NS(=O)(=O)c1cc(Cl)c(F)cc1F [Compound 417],90.8
12,CCn1c(Oc2ccc3cc[nH]c3c2)nnc1[C@@H](C)NS(=O)(=O)c1c(F)c(Br)cc(F)c1Br [Compound 420],61
13,CCn1c(Oc2ccc3cc[nH]c3c2)nnc1[C@@H](C)NS(=O)(=O)c1cc(C(F)(F)F)ccc1Cl [Compound 422],83.1
14,CCn1c(Oc2ccc3cc[nH]c3c2)nnc1[C@@H](C)NS(=O)(=O)c1cccc(F)c1 [Compound 423],87.8
15,CCn1c(Oc2ccc3cc[nH]c3c2)nnc1[C@@H](C)NS(=O)(=O)c1cc(Cl)ccc1OC [Compound 425],90.1
16,CCn1c(Oc2ccc3cc[nH]c3c2)nnc1[C@@H](C)NS(=O)(=O)c1c(C)cc(Cl)cc1Cl [Compound 426],92.3
17,CCn1c(Oc2ccc3cc[nH]c3c2)nnc1[C@@H](C)NS(=O)(=O)c1cc(F)c(F)cc1F [Compound 427],86.5
18,CCn1c(Oc2ccc3cc[nH]c3c2)nnc1[C@@H](C)NS(=O)(=O)c1cc(Br)ccc1Br [Compound 428],81.4
19,CCn1c(Oc2ccc3cc[nH]c3c2)nnc1[C@@H](C)NS(=O)(=O)c1ccc(-c2ccno2)s1 [Compound 429],71.1
20,CCn1c(Oc2ccc3cc[nH]c3c2)nnc1[C@@H](C)NS(=O)(=O)Cc1cccc(Cl)c1 [Compound 430],50
21,CCn1c(Oc2ccc3cc[nH]c3c2)nnc1[C@@H](C)NS(=O)(=O)c1ccc(Br)cc1Br [Compound 431],80.5
22,CCn1c(Oc2ccc3cc[nH]c3c2)nnc1[C@@H](C)NS(=O)(=O)c1ccc(F)c(C#N)c1 [Compound 432],84.2
23,CCn1c(Oc2ccc3cc[nH]c3c2)nnc1[C@@H](C)NS(=O)(=O)c1cc(C)cc(C)c1 [Compound 433],93.8

row,SMILES,inhibition at 10 µM [%]
1,CCn1c(Oc2ccc3cc[nH]c3c2)nnc1[C@@H](C)NS(=O)(=O)c1ccc(OC(F)F)cc1 [Compound 434],79.5
2,CCn1c(Oc2ccc3cc[nH]c3c2)nnc1[C@@H](C)NS(=O)(=O)c1cccc(OC(F)F)c1 [Compound 435],94.6
3,CCn1c(Oc2ccc3cc[nH]c3c2)nnc1[C@@H](C)NS(=O)(=O)c1c(F)cc(F)cc1Br [Compound 436],67.5
4,CCn1c(Oc2ccc3cc[nH]c3c2)nnc1[C@@H](C)NS(=O)(=O)c1cc(F)cc(F)c1 [Compound 437],97.3
5,CCn1c(Oc2ccc3cc[nH]c3c2)nnc1[C@@H](C)NS(=O)(=O)c1ccc(Cl)cc1F [Compound 438],71.6
6,CCn1c(Oc2ccc3cc[nH]c3c2)nnc1[C@@H](C)NS(=O)(=O)c1cc(F)c(F)c(F)c1 [Compound 439],98.1
7,CCn1c(Oc2ccc3cc[nH]c3c2)nnc1[C@@H](C)NS(=O)(=O)c1ccc(Br)c(C)c1 [Compound 440],88.4
8,CCn1c(Oc2ccc3cc[nH]c3c2)nnc1[C@@H](C)NS(=O)(=O)c1ccc(F)cc1Br [Compound 441],63
9,CCn1c(Oc2ccc3cc[nH]c3c2)nnc1[C@@H](C)NS(=O)(=O)c1ccc(C(F)(F)F)cc1Br [Compound 442],70.1
10,CCn1c(Oc2ccc3cc[nH]c3c2)nnc1[C@@H](C)NS(=O)(=O)c1cc(C(F)(F)F)ccc1Br [Compound 443],55.7
11,CCn1c(Oc2ccc3cc[nH]c3c2)nnc1[C@@H](C)NS(=O)(=O)c1ccc(C)c(F)c1 [Compound 444],100
12,CCn1c(Oc2ccc3cc[nH]c3c2)nnc1[C@@H](C)NS(=O)(=O)c1ccc(F)cc1C [Compound 445],55.6
13,CCn1c(Oc2ccc3cc[nH]c3c2)nnc1[C@@H](C)NS(=O)(=O)c1cc(Cl)ccc1F [Compound 446],75.8
14,CCn1c(Oc2ccc3cc[nH]c3c2)nnc1[C@@H](C)NS(=O)(=O)c1ccc(Br)c(F)c1 [Compound 447],95.5
15,CCn1c(Oc2ccc3cc[nH]c3c2)nnc1[C@@H](C)NS(=O)(=O)c1ccc(Br)cc1Cl [Compound 448],81.1
16,CCn1c(Oc2ccc3cc[nH]c3c2)nnc1[C@@H](C)NS(=O)(=O)c1cc(C)ccc1F [Compound 451],76.8
17,CCn1c(Oc2ccc3cc[nH]c3c2)nnc1[C@@H](C)NS(=O)(=O)c1cccc(Cl)c1F [Compound 452],68.9
18,CCn1c(Oc2ccc3cc[nH]c3c2)nnc1[C@@H](C)NS(=O)(=O)CC1CCCCC1 [Compound 458],83.8
19,CCn1c(Oc2ccc3cc[nH]c3c2)nnc1[C@@H](C)NS(=O)(=O)c1cc(C)oc1C(F)(F)F [Compound 460],53.2
20,CCn1c(Oc2ccc3cc[nH]c3c2)nnc1[C@@H](C)NS(=O)(=O)c1ccc2c(c1)OCCO2 [Compound 461],99.7
21,CCn1c(Oc2ccc3cc[nH]c3c2)nnc1[C@@H](C)NS(=O)(=O)c1ccc2nsnc2c1 [Compound 464],87.9
22,CCn1c(Oc2ccc3cc[nH]c3c2)nnc1[C@@H](C)NS(=O)(=O)c1ccsc1 [Compound 466],51.1
23,CCn1c(Oc2ccc3cc[nH]c3c2)nnc1[C@@H](C)NS(=O)(=O)c1ccc(-c2cnco2)s1 [Compound 467],59.9

row,SMILES,inhibition at 10 µM [%]
1,CCn1c(Oc2ccc3cc[nH]c3c2)nnc1[C@@H](C)NS(=O)(=O)c1cnn(-c2ccccc2)c1C [Compound 468],56.2
2,CCn1c(Oc2ccc3cc[nH]c3c2)nnc1[C@@H](C)NS(=O)(=O)c1cc(C)sc1C [Compound 472],55.3
3,CCn1c(Oc2ccc3cc[nH]c3c2)nnc1[C@@H](C)NS(=O)(=O)c1ccc(OC)cc1OC [Compound 473],74.5
4,CCn1c(Oc2ccc3cc[nH]c3c2)nnc1[C@@H](C)NS(=O)(=O)c1ccc(C(F)(F)F)cc1Cl [Compound 475],51.8
5,CCn1c(Oc2ccc3cc[nH]c3c2)nnc1[C@@H](C)NS(=O)(=O)c1cccc(C(C)=O)c1 [Compound 477],58.1
6,CCn1c(Oc2ccc3cc[nH]c3c2)nnc1[C@@H](C)CS(=O)(=O)c1ccc(F)c2ccccc12 [Compound 478],87
7,CCc1ccc(OC)c(S(=O)(=O)N[C@H](C)c2nnc(Oc3ccc4cc[nH]c4c3)n2CC)c1 [Compound 482],87.4
8,CCn1c(Oc2ccc3cc[nH]c3c2)nnc1[C@@H](C)NS(=O)(=O)c1ccc(Cl)c(S(N)(=O)=O)c1 [Compound 484],65.3
9,CCn1c(Oc2ccc3cc[nH]c3c2)nnc1[C@@H](C)NS(=O)(=O)c1ccc(Br)c(C(F)(F)F)c1 [Compound 488],62.5
10,CCn1c(Oc2ccc3cc[nH]c3c2)nnc1[C@@H](C)NS(=O)(=O)c1cc2ccccc2s1 [Compound 493],83.1
11,CCn1c(Oc2ccc3cc[nH]c3c2)nnc1[C@@H](C)NS(=O)(=O)c1csc2ccccc12 [Compound 494],66
12,CCn1c(Oc2cccc(N3CCN(C)CC3)c2)nnc1[C@@H](C)NS(=O)(=O)c1ccc(C(C)=O)cc1 [Compound 497],104
13,CCn1c(Oc2cccc(N3CCN(C)CC3)c2)nnc1[C@@H](C)NS(=O)(=O)c1ccccc1 [Compound 498],84
14,CCn1c(Oc2cccc(N3CCN(C)CC3)c2)nnc1[C@@H](C)NS(=O)(=O)c1ccc(Br)cc1 [Compound 499],109
15,CCn1c(Oc2cccc(N3CCN(C)CC3)c2)nnc1[C@@H](C)NS(=O)(=O)c1ccc(C(C)(C)C)cc1 [Compound 500],90.2
16,CCn1c(Oc2cccc(N3CCN(C)CC3)c2)nnc1[C@@H](C)NS(=O)(=O)c1ccccc1Br [Compound 501],61.7
17,CCCCOc1ccc(S(=O)(=O)N[C@H](C)c2nnc(Oc3cccc(N4CCN(C)CC4)c3)n2CC)cc1 [Compound 502],75.5
18,CCn1c(Oc2cccc(N3CCN(C)CC3)c2)nnc1[C@@H](C)NS(=O)(=O)c1cccc(Br)c1 [Compound 503],116
19,CCn1c(Oc2cccc(N3CCN(C)CC3)c2)nnc1[C@@H](C)NS(=O)(=O)c1ccc(Br)cc1OC(F)(F)F [Compound 504],53.5
20,CCn1c(Oc2cccc(N3CCN(C)CC3)c2)nnc1[C@@H](C)NS(=O)(=O)c1ccc(Cl)cc1 [Compound 505],108
21,CCn1c(Oc2cccc(N3CCN(C)CC3)c2)nnc1[C@@H](C)NS(=O)(=O)c1ccccc1C#N [Compound 506],83.2
